Structures can show the parent of a compound that is named as a salt.

Data set [1] is described as follows: I.P. symptomatology: highest tolerated dose and median lethal dose (Table IV). In kind it is in vivo.
A short description of the next data set: in vivo. The conditions noted are these: po.
Data set [2] in a line: Mouse tail stimulation (MTS) (Table IV). It counts as in vivo. Also noted: unit not given here. The conditions noted are these: S.C.
For a further data set, the system named is Morphine Analgesia. It counts as in vivo, rat. The conditions noted are these: for narcotic antagonist potency relative to pentazocine: compared with pentazocine, Table II.
The nature of data set [3]: Analgesic activity summarized over hot plate and writhing methods (Table I). The conditions noted are these: for analgesic activity, ranking among tested compounds / separation between effective dose and toxic or lethal doses: Table I; for separation between effective dose and toxic or lethal doses: therapeutic index. (In general: An intraperitoneal irritant provokes the stretching counted in writhing tests.)

Data set [4] is described as follows: Narcotic antagonism (Table IV). It counts as in vivo. The conditions noted are these: I.P.
A short description of data set [5]: Local anesthetic sciatic block (Table IV). It counts as in vivo. The conditions noted are these: 1%.
Data set [6] can be described thus: Writhing analgesia (Table I). In kind it is in vivo. The conditions noted are these: oral; vs pentazocine.

Broadly, the LD50 is the dose expected to kill half of the subjects tested. For `Oc1ccc2c(c1)CCN(C[C@H]1C[C@@H]1c1ccccc1)CC2` (relative stereo) [Example 30, 7-Hydroxy-3(trans-2-phenylcyclopropylmethyl)-1,2,4,5-tetrahydro-3H,3-benzazepine], the 50% lethal dose (LD50) in data set [1] (in vivo, ip, I.P.) was over 1000 mg/kg.

As for `CC1Cc2ccccc2CCN1` (single isomer, unassigned; (+)) [Example 49, (+)-2-Methyl-1,2,4,5-tetrahydro-3H,3-benzazepine hydrochloride], in data set [1] (I.P., hydrochloride), the “LD50 (median lethal dose)” value was 200 mg/kg.

On to `CC1Cc2ccccc2CCN1` (single isomer, unassigned; (-)) [Example 48, (-)-2-Methyl-1,2,4,5-tetrahydro-3H,3-benzazepine], for which the “LD50 (median lethal dose)” value in data set [1] (I.P.) was determined as 60 mg/kg.

With `CC1Cc2ccccc2CCN1C` (single isomer, unassigned; (-)) [Example 54, (-)-2,3-Dimethyl-1,2,4,5-tetrahydro-3H,3-benzazepine hydrochloride], the “LD50 (median lethal dose)” value in [1] (I.P., hydrochloride) is recorded as 60 mg/kg.

Regarding `COc1ccc2c3c1O[C@H]1[C@@H](O)C=C[C@H]4[C@@H](C2)N(C)CC[C@@]341` [Codeine], in “in vivo”, the LD50 was 540 mg/kg.

In the case of `COc1ccc2c(c1)CCNCC2` [Example 1, 7-Methoxy-1,2,4,5-tetrahydro-3H,3-benzazepine], in data set [2], the “MTS (mouse tail stimulation)” value was over 3.

Regarding `CC(C)=CCN1CCc2ccc(O)cc2CC1` [Example 4, 3-(3,3-Dimethylallyl)-7-hydroxy-1,2,4,5-tetrahydro-3H,3-benzazepine], the “narcotic antagonist potency relative to pentazocine” value in the data set with Morphine Analgesia is listed as “more potent antagonist than pentazocine”. In addition, in data set [2], the “MTS (mouse tail stimulation)” value was over 56.

On to `CC(=O)Oc1ccc2c(c1)CCN(CC=C(C)C)CC2` [Example 5, 7-Acetoxy-3-(3,3-dimethylallyl)-1,2,4,5-tetrahydro-3H,3-benzazepine hydrochloride], for which, in data set [2], the “MTS (mouse tail stimulation)” value is on record as over 30.

With `C=CCN1CCc2ccc(OC)cc2CC1` [Example 14, 3-Allyl-7-methoxy-1,2,4,5-tetrahydro-3H,3-benzazepine], the “narcotic antagonist potency relative to pentazocine” value with Morphine Analgesia is “about equipotent to pentazocine”.

As for `COc1ccc2c(c1)CCN(C)CC2` [Example 18, 7-Methoxy-3-methyl-1,2,4,5-tetrahydro-3H,3-benzazepine], the oral analgesic activity result in [3] was “active by the oral route”.

For `COc1ccc2c(c1)CCN(CCc1ccccc1)CC2` [Example 24, 7-Methoxy-3-phenethyl-1,2,4,5-tetrahydro-3H,3-benzazepine], in data set [4], the “Narcotic Antagonism” value is “Positive”. Besides, the “narcotic antagonist potency relative to pentazocine” value in the data set with Morphine Analgesia is on record as “about equipotent to pentazocine”. For the same compound, in data set [3], the “analgesic activity, ranking among tested compounds” value is recorded as “most active compounds”; the “separation between effective dose and toxic or lethal doses” value is “greatest separation between effective dose and toxic or lethal doses”. Also, the “MTS (mouse tail stimulation)” value in data set [2] stood at 5. Besides, in data set [1] (in vivo, ip, I.P. symptomatology, read-out: HTD (highest tolerated dose)), the MTD came out at 30 mg/kg.

On to `Oc1ccc2c(c1)CCN(CCc1ccccc1)CC2` [Example 25, 7-Hydroxy-3-phenethyl-1,2,4,5-tetrahydro-3H,3-benzazepine], for which the “HNSD (Highest Non Symptomatic Dose)” value (IP (Intraperitoneal)) was found to be 55 mg/kg.

With `COc1ccc2c(c1)CCN(CC=Cc1ccccc1)CC2` [Example 28, 7-Methoxy-3-(3-phenylallyl)-1,2,4,5-tetrahydro-3H,3-benzazepine], the “narcotic antagonist potency relative to pentazocine” value in the data set with Morphine Analgesia is reported as “about equipotent to pentazocine”. Moreover, the oral analgesic activity result in data set [3] is reported as “active by the oral route”. Besides, in data set [2], the “MTS (mouse tail stimulation)” value stood at 10.

For `COc1ccc2c(c1)CCN(CCN1CCN(c3ccccc3)CC1)CC2` [Example 31, 7-Methoxy-3-[2-(4-phenyl-1-piperazinyl)ethyl]-1,2,4,5-tetrahydro-3H,3-benzazepine], in data set [3], the “analgesic activity, ranking among tested compounds” value is recorded as “most active compounds”; the “separation between effective dose and toxic or lethal doses” value was “greatest separation between effective dose and toxic or lethal doses”. Besides, in data set [2], the “MTS (mouse tail stimulation)” value stood at 20.

Consider `CC(C)=CCN1CCc2ccc(O)cc2CC1C` (stereo not shown) [Example 34, 3-(3,3-Dimethylallyl)-8-hydroxy-2-methyl-1,2,4,5-tetrahydro-3H,3-benzazepine hydrochloride], for which the “MTS (mouse tail stimulation)” value in data set [2] is listed as over 40.

In the case of `COc1ccc2c(c1)CC(C)N(CCc1ccccc1)CC2` (stereo not shown) [Example 36, 8-Methoxy-2-methyl-3-phenethyl-1,2,4,5-tetrahydro-3H,3-benzazepine hydrochloride], in data set [2], the “MTS (mouse tail stimulation)” value stood at 10. Further, the “Local Anesthetic Sciatic Block” value in data set [5] is listed as “Insoluable”.

In the case of `c1ccc2c(c1)CCN(CC1CC1)CC2` [Example 37, 3-Cyclopropylmethyl-1,2,4,5-tetrahydro-3H,3-benzazepine hydrochloride], the “writhing activity relative to pentazocine” value in data set [6] was “approximately twice as active as pentazocine”. In addition, the oral analgesic activity result in data set [3] was “active by the oral route”. For the same compound, the “MTS (mouse tail stimulation)” value in [2] was determined as 10.

`C=CCN1CCc2ccc(OC)cc2CC1C` (stereo not shown) [Example 38, 3-Allyl-8-methoxy-2-methyl-1,2,4,5-tetrahydro-3H,3-benzazepine hydrochloride]: in data set [2], the “MTS (mouse tail stimulation)” value was over 10.

Turning to `CC1Cc2cc(O)ccc2CCN1CC1CC1` (stereo not shown) [Example 41, 3-Cyclopropylmethyl-8-hydroxy-2-methyl-1,2,4,5-tetrahydro-3H,3-benzezepine hydrochloride], the “MTS (mouse tail stimulation)” value in [2] is over 30.

Take `C=CCN1CC[C@]23c4c5ccc(O)c4O[C@H]2[C@@H](O)C=C[C@H]3[C@H]1C5` [Nalorphine, reference compound]: the “Antagonism of Morphine Analgesia, times more active than compounds listed above” value with Morphine Analgesia (rat, in vivo, sc) was 20-100.

As to `CC(C)=CCN1CCC2(C)c3cc(O)ccc3CC1C2C` (stereo not shown) [Pentazocine, reference compound], for the setting “IP”, the LDSO is given as over 500 mg/kg.

(Values after US4233217A, “Substituted 1,2,4,5-tetrahydro-3H, 3 benzazepines” (priority 1979, dated 1980).)
